Each structure is given as a SMILES string. The source made the active and inactive calls.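 The calls were made as follows: active = compounds giving half or more protection of infected cells from virus-caused growth loss, again on retest; inactive = the rest.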 Where only a bound is given, the exact number is not on record here.

The test system of the assay is CEM cells HIV-1 protection, formazan growth assay. Put plainly: NCI AIDS Antiviral Assay. Conditions: for IC50: measured here: growth of uninfected CEM cells. The method, boiled down: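 Steps: treat uninfected and HIV-1-infected human CEM cells at five drug levels; quantify growth by soluble formazan; retest any compound reaching 50% protection; classify actives from the retest.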

By EC50 is commonly meant the concentration giving half of the maximal effect. In general, IC50 refers to the midpoint of a concentration-inhibition curve. With `CCSCN(C)c1nc(N(C)C)nc(N(C)C)n1`, the EC50 is above 200 µM and the IC50 was determined as 8.51 µM. As for `Cn1c2ccccc2c2c(=O)[nH]c(=O)[nH]c21`, the EC50 is above 200 µM and the IC50 is above 200 µM. In the case of `Cn1c2c(c3ccccc31)CCN(CCN1CCN(c3cccc(Cl)c3)CC1)C2=O`, the EC50 is above 8.51 µM and the IC50 was above 8.51 µM.

In the case of `Cc1c(N(Cc2ccccc2)Cc2ccccc2)nc(S(C)(=O)=O)nc1S(C)(=O)=O`, the result was inactive. With `CN1CN(c2ccccc2)C2(CCN(CCc3cc4ccccc4o3)CC2)C1=O`, the EC50 is above 200 µM and the IC50 came to 8.13 µM. On the same counts, the results for `Cc1ccc2c3ccc4c(c3n(C)c2c1)C(=O)C=CC4=O` are above 100 µM and 1.82 µM. On to `CC(=O)c1c(O)ccc2c1CC(CC=O)O2` (stereo unspecified), for which the EC50 is above 589 µM and the IC50 amounted to 22.9 µM.

Turning to `OCC(CCc1ccccc1I)C1=CCC2(CC1)OCCO2` (stereo unspecified), the EC50 was above 200 µM and the IC50 was found to be 34.7 µM. On the same counts, the results for `CCOC(=O)C(NC(=O)c1cccc(Cl)c1)(N1CCN(c2cc3c(cc2F)c(=O)c(C(=O)O)cn3C2CC2)CC1)C(F)(F)F` (stereo unspecified) are above 20 µM and 10.2 µM. Consider `O=C(O)c1c2c(cc3c1CC(Cc1ccccc1)C3=O)CCC2` (stereo unspecified), for which the EC50 was above 200 µM and the IC50 was 64.6 µM. Turning to `CCN(CC)CCN(C)c1ccc(/C=C/c2ccnc3ccccc23)cc1`, the outcome was inactive.

In the case of `CC(=O)OC1(C(C)=O)CC2(c3ccccc3)OC1(c1ccccc1)c1ccccc12` (stereo unspecified), the result was inactive. For the compound `Cc1cc(S(=O)(=O)NC(=NCCc2ccccc2)NN)c(S)cc1Cl`, the EC50 was above 200 µM and the IC50 turned out to be 25.7 µM.

On to `CC1CN=C(c2ccc(NC(=O)c3ccc(C(=O)Nc4ccc(C5=NCC(C)CN5)cc4)cc3)cc2)NC1` (stereo unspecified), for which the EC50 was above 200 µM and the IC50 amounted to 25.1 µM.

Consider `N#C/C(=C\n1c(=S)[nH]c2ccccc21)c1nc2ccccc2s1`, for which the EC50 is above 200 µM and the IC50 was above 200 µM.

Take `CCSC1=N/C(=C/c2ccccc2O)C(=O)N1`: the EC50 is above 200 µM and the 50% inhibitory concentration (IC50) was found to be 123 µM. Regarding `C=C1CN(S(=O)(=O)c2ccc(C)cc2)CCCN(Cc2ccncc2)CCCN(S(=O)(=O)c2ccc(C)cc2)C1`, the EC50 was above 200 µM and the IC50 is 4.37 µM. Turning to `Clc1ccc(CSc2ccc3nncc(SCc4ccc(Cl)cc4Cl)c3c2)c(Cl)c1`, the EC50 was above 29.5 µM and the IC50 is above 29.5 µM. For `C/C=C1/CN2CCc3c4n(c5ccccc35)[C@@H](CO)C1CC42` (stereo partly specified), the EC50 was above 61.7 µM and the IC50 is above 61.7 µM. Consider `Oc1ccc(Oc2cc3c(cc2Oc2ccc(O)cc2)-c2nc-3nc3[nH]c(nc4nc(nc5[nH]c(n2)c2cc(Oc6ccc(O)cc6)c(Oc6ccc(O)cc6)cc52)-c2cc(Oc5ccc(O)cc5)c(Oc5ccc(O)cc5)cc2-4)c2cc(Oc4ccc(O)cc4)c(Oc4ccc(O)cc4)cc32)cc1`, for which the EC50 is above 50.1 µM and the half-inhibitory concentration (IC50) turned out to be 22.9 µM. On the same counts, the results for `O=S(=O)(Oc1cccc2ccccc12)C(F)(F)F` are above 200 µM and 120 µM. For `COC(=O)C12C(=O)O[C@H](C)C1(O)C(C)C(=O)N2C` (stereo partly specified), the outcome was inactive. `CCP(=O)(OC)C1=CCN(C(=O)OCC[Si](C)(C)C)CC1` (stereo unspecified): the EC50 is above 200 µM and the IC50 is above 200 µM. As for `Cc1ccc(/C=C2\CCCCC2=O)cc1`, the result was inactive. For the compound `CCCCCCCCCCCCCCCCOC1OC(CS(=O)(=O)S(=O)(=O)CC2OC(OCCCCCCCCCCCCCCCC)C(O)C(O)C2O)C(O)C(O)C1O` (stereo unspecified), the EC50 is above 7.94 µM.

Regarding `COC(CNC(=O)C(C)NC(=O)CCc1ccccc1)OC` (stereo unspecified), the outcome was inactive. Consider `Nc1ccc2cc3[nH]c4cc(N)ccc4c3nc2c1`, for which the EC50 was above 1.35 µM and the IC50 stood at 0.339 µM. On the same counts, the results for `CCCCCCCCCCCC(=O)OC[C@H](C[As](=O)(O)O)OC(=O)CCCCCCCCCCC` are above 200 µM and 4.17 µM. On the same counts, the results for `CCOC(=O)c1cnc(SCc2ccc(Cl)c(Cl)c2)nc1N1CC1C` (stereo unspecified) are above 200 µM and 6.46 µM. With `COC(=O)C(Cc1cccc(OC)c1)NC(=O)OC(C)(C)C` (stereo unspecified), the result was inactive.

`CC(=O)/C(C)=N/NC(=O)c1ccccc1O`: the EC50 is above 4.79 µM and the IC50 was above 4.79 µM. With `COc1ccc2c(c1)CCCN1Cc3ccccc3CC21` (stereo unspecified), the EC50 was above 200 µM and the IC50 is 141 µM.

In the case of `C[N+]1(C)C/C(=C/c2ccc(F)cc2)C(=O)/C(=C\c2ccc(F)cc2)C1`, the EC50 was above 537 µM and the IC50 turned out to be 97.7 µM. On the same counts, the results for `COC(=O)/C=C(C)/C=C/C1OC(C)OCC1O` (stereo unspecified) are above 1020 µM and above 1020 µM. `O=C(NCCO)c1c(O)c2ccccc2[nH]c1=O`: the EC50 is above 200 µM and the IC50 was above 200 µM. `Cn1c(/C=C(\O)c2ccc(Cl)cc2)nc2ccccc21`: the EC50 is above 91.2 µM and the IC50 was above 91.2 µM. Regarding `O=C(CC(=O)c1cccc([N+](=O)[O-])c1)C(=O)Nc1nc([N+](=O)[O-])cs1`, the EC50 was above 20 µM and the 50% inhibitory concentration (IC50) was above 20 µM.

Regarding `COC1CC(O)C2OC(c3ccccc3)OCC2O1` (stereo unspecified), the outcome was inactive.

On to `C=CCC1(C)CCCN(Cc2ccccc2)C1=O` (stereo unspecified), for which the EC50 was above 200 µM and the IC50 came to 105 µM. With `O=C(CCC1CCCCN1)Nc1ccc2c(c1)C(=O)c1ccc(NC(=O)CCN3CCCCC3)cc1C2=O` (stereo unspecified), the result was inactive.

As to `CC1(C)/C(=C/N=O)N(O)C(C)(C)N1O`, the EC50 is above 200 µM and the IC50 was determined as 120 µM. On the same counts, the results for `O=S(=O)(O)CO` are above 200 µM and 151 µM. For `COc1cc(OC)cc(N(C)Cc2cnc3nc(N)nc(N)c3c2C)c1`, the EC50 was above 200 µM and the IC50 was determined as 0.138 µM. For `Cc1ccc(C)c2c1C(=O)N(c1ccccc1)C2=O`, the EC50 was above 200 µM and the IC50 was above 200 µM. For the compound `CS(=O)(=O)NNS(=O)(=O)c1ccc(F)cc1`, the EC50 is above 251 µM and the IC50 is above 251 µM.

Turning to `CC(C)(C)OC(=O)[C@@H]1CCC(=S)N1Cc1ccccc1`, the EC50 is above 200 µM and the IC50 was found to be 135 µM. `NC(=O)C(F)C(N)=O`: the EC50 was above 200 µM and the IC50 was above 200 µM.

As to `O=C(O)Cc1c(-c2ccc([N+](=O)[O-])cc2)c(=O)oc2cc(O)ccc12`, the EC50 is above 200 µM and the IC50 was 21.4 µM. For the compound `COc1cc(O)cc(O)c1C(=O)CC(Cl)(Cl)Cl`, the EC50 was above 316 µM and the IC50 was determined as 170 µM. Regarding `COC(=O)C(C)(C)NC(=O)C(Cc1ccccc1)Nc1ncnc2c1ncn2-c1ccc(OC)cc1` (stereo unspecified), the outcome was inactive and the IC50 came to 56.2 µM. With `CCCCNC(C)(C)C(SSSC(c1ccco1)C(C)(C)NCCCC)c1ccco1` (stereo unspecified), the EC50 is above 200 µM and the IC50 was determined as 30.9 µM.

Turning to `CN(C)C=O.CN(C)C=O.CN1C(C(=O)Nc2ccccn2)=C([O-])c2ccccc2S1(=O)=O.CN1C(C(=O)Nc2ccccn2)=C([O-])c2ccccc2S1(=O)=O.[Cu+2]`, the result was inactive. Turning to `Cc1cn(C2CCN(CC3COC(C)(C)O3)O2)c(=O)[nH]c1=O` (stereo unspecified), the EC50 was above 200 µM and the IC50 is above 200 µM. In the case of `COc1cc(/C=C/C(=O)CC(=O)/C=C/c2ccc(O)c(O)c2)ccc1O`, the EC50 is above 200 µM and the IC50 is 6.76 µM. Regarding `COCOC1/C=C/CCCCC2=C(C)C=C(C1)O2` (stereo unspecified), the EC50 was above 141 µM and the IC50 is 132 µM.

For `COc1ccc(-c2c(C)c(C)nc(Cl)c2C#N)c(OCc2ccccc2)c1OC`, the result was inactive. Take `O=C(O)c1ccc2[nH]c(=O)oc2c1`: the EC50 was above 200 µM and the IC50 was above 200 µM.

On to `On1ccc(=S)c2ccccc21`, for which the EC50 was above 200 µM and the IC50 is 36.3 µM.

As for `COc1cc(/C=C2\CCC(C)C3=C(c4cc(OC)c(OC)c(OC)c4)C(C#N)=C(N)OC32)cc(OC)c1OC` (stereo unspecified), the result was inactive.

Regarding `S=c1ssc2ccccc12`, the EC50 was above 97.7 µM and the IC50 was determined as 91.2 µM. With `COc1ccc(C2(OC)Oc3cc(OC)ccc3C(=O)C2(O)OC)cc1` (stereo unspecified), the EC50 is above 200 µM and the IC50 was 11 µM.

In the case of `O=c1[nH]c2ccccc2nc1/C=C(\O)c1ccccc1O`, the EC50 was above 13.5 µM and the IC50 is above 13.5 µM.

As to `Cc1ccc(C)c(NC(=O)C(=O)C(C(=O)c2ccc3ccccc3c2)C2OC(=O)c3ccccc32)c1` (stereo unspecified), the EC50 was above 53.7 µM and the IC50 was 23.4 µM. With `S=C(N/N=C(\C(=N/NC(=S)N1CCCCC1)c1ccccn1)c1ccccn1)N1CCCCC1`, the EC50 was above 200 µM and the IC50 worked out at 39.8 µM.

On to `CNC(=O)OCC1=CC(=O)C(OC)=CC1=O`, for which the EC50 was above 200 µM and the IC50 came out at 10 µM. On to `COC(=O)/C=C/C(=O)CC(O)COC(=O)c1ccccc1` (stereo unspecified), for which the EC50 is above 85.1 µM and the IC50 amounted to 2.09 µM. Consider `COC(=O)c1ccc2c(c1)CC1(C2)Cc2ccc3c(c2C1)CCC3` (stereo unspecified), for which the EC50 was above 200 µM and the IC50 is above 200 µM.

`CC(C)(C)c1cc(C(O)(C(=O)O)C(=O)O)cc(C(C)(C)C)c1O`: the EC50 was above 200 µM and the IC50 is above 200 µM. As for `CS/C(=C\c1ccc(C(=O)c2ccc(C)cc2)n1C)S(C)=O` (stereo unspecified), the EC50 was above 200 µM and the IC50 came out at 12.3 µM. As to `CN(C)CC1CCCC(CN(C)C)C1=NO` (stereo unspecified), the result was inactive.

On to `CC1N=C(SCc2c(F)cccc2Cl)N2C(C)N=C(SCc3c(F)cccc3Cl)N12` (stereo unspecified), for which the EC50 was above 20.4 µM and the IC50 is above 20.4 µM. Turning to `CN(C)c1ccc(/C(Br)=C2\OC(=O)c3ccccc32)cc1`, the EC50 is above 200 µM and the IC50 was 112 µM. Consider `C=CCN(CC=C)c1nc(Cl)nc(Cl)n1`, for which the EC50 is above 200 µM and the half-maximal inhibitory concentration (IC50) is above 200 µM. As to `CCOc1ccc(N)c(S)c1`, the EC50 was above 200 µM and the IC50 was 26.9 µM. On to `CCOc1ccc(C(C)c2cc3c(cc2OC)OCO3)cc1` (stereo unspecified), for which the EC50 was above 33.1 µM and the IC50 was 0.468 µM.

The record behind these values is PubChem BioAssay AID179 (DTP/NCI, 2004).
